# Experiments:
# [1] = tested on: Streptococcus mutans; experiment: Antibacterial activity against Streptococcus mutans ATCC 25175 assessed as effect on planktonic growth at 21.9 ug/ml after 20 hrs relative to control; format: functional
# [2] = tested on: Streptococcus mutans; experiment: Antibacterial activity against Streptococcus mutans ATCC 25175 assessed as effect on planktonic growth at 43.8 ug/ml after 20 hrs relative to control; format: functional
# [3] = tested on: Streptococcus mutans; experiment: Antibacterial activity against Streptococcus mutans ATCC 25175 assessed as effect on planktonic growth at 87.5 ug/ml after 20 hrs relative to control; format: functional
# [4] = tested on: Staphylococcus aureus; experiment: Antibacterial activity against Staphylococcus aureus ATCC 25923 assessed as effect on planktonic growth at 0.17 ug/ml after 20 hrs relative to control; format: functional
# [5] = tested on: Staphylococcus aureus; experiment: Antibacterial activity against Staphylococcus aureus ATCC 25923 assessed as effect on planktonic growth at 0.34 ug/ml after 20 hrs relative to control; format: functional
# [6] = tested on: Staphylococcus aureus; experiment: Antibacterial activity against Staphylococcus aureus ATCC 25923 assessed as effect on planktonic growth at 0.68 ug/ml after 20 hrs relative to control; format: functional
# [7] = tested on: Staphylococcus aureus; experiment: Antibacterial activity against Staphylococcus aureus ATCC 25923 assessed as effect on planktonic growth at 1.37 ug/ml after 20 hrs relative to control; format: functional
# [8] = tested on: Staphylococcus aureus; experiment: Antibacterial activity against Staphylococcus aureus ATCC 25923 assessed as effect on planktonic growth at 5.5 ug/ml after 20 hrs relative to control; format: functional
# [9] = tested on: Staphylococcus aureus; experiment: Antibacterial activity against Staphylococcus aureus ATCC 25923 assessed as effect on planktonic growth at 2.73 ug/ml after 20 hrs relative to control; format: functional
# [10] = tested on: Staphylococcus aureus; experiment: Antibacterial activity against Staphylococcus aureus ATCC 25923 assessed as effect on planktonic growth at 10.9 ug/ml after 20 hrs relative to control; format: functional
# [11] = tested on: Staphylococcus aureus; experiment: Antibacterial activity against Staphylococcus aureus ATCC 25923 assessed as effect on planktonic growth at 21.9 ug/ml after 20 hrs relative to control; format: functional
# [12] = tested on: Staphylococcus aureus; experiment: Antibacterial activity against Staphylococcus aureus ATCC 25923 assessed as effect on planktonic growth at 43.8 ug/ml after 20 hrs relative to control; format: functional
# [13] = tested on: Staphylococcus aureus; experiment: Antibacterial activity against Staphylococcus aureus ATCC 25923 assessed as effect on planktonic growth at 87.5 ug/ml after 20 hrs relative to control; format: functional
# [14] = tested on: Pseudomonas aeruginosa; experiment: Antibacterial activity against Pseudomonas aeruginosa ATCC 27853 assessed as effect on planktonic growth at 0.17 ug/ml after 20 hrs relative to control; format: functional
# [15] = tested on: Pseudomonas aeruginosa; experiment: Antibacterial activity against Pseudomonas aeruginosa ATCC 27853 assessed as effect on planktonic growth at 0.34 ug/ml after 20 hrs relative to control; format: functional
# [16] = tested on: Pseudomonas aeruginosa; experiment: Antibacterial activity against Pseudomonas aeruginosa ATCC 27853 assessed as effect on planktonic growth at 0.68 ug/ml after 20 hrs relative to control; format: functional
# [17] = tested on: Pseudomonas aeruginosa; experiment: Antibacterial activity against Pseudomonas aeruginosa ATCC 27853 assessed as effect on planktonic growth at 1.37 ug/ml after 20 hrs relative to control; format: functional
# [18] = tested on: Pseudomonas aeruginosa; experiment: Antibacterial activity against Pseudomonas aeruginosa ATCC 27853 assessed as effect on planktonic growth at 2.73 ug/ml after 20 hrs relative to control; format: functional
# [19] = tested on: Pseudomonas aeruginosa; experiment: Antibacterial activity against Pseudomonas aeruginosa ATCC 27853 assessed as effect on planktonic growth at 5.5 ug/ml after 20 hrs relative to control; format: functional
# [20] = tested on: Pseudomonas aeruginosa; experiment: Antibacterial activity against Pseudomonas aeruginosa ATCC 27853 assessed as effect on planktonic growth at 10.9 ug/ml after 20 hrs relative to control; format: functional
# [21] = tested on: Pseudomonas aeruginosa; experiment: Antibacterial activity against Pseudomonas aeruginosa ATCC 27853 assessed as effect on planktonic growth at 21.9 ug/ml after 20 hrs relative to control; format: functional
# [22] = tested on: Pseudomonas aeruginosa; experiment: Antibacterial activity against Pseudomonas aeruginosa ATCC 27853 assessed as effect on planktonic growth at 43.8 ug/ml after 20 hrs relative to control; format: functional
# [23] = tested on: Pseudomonas aeruginosa; experiment: Antibacterial activity against Pseudomonas aeruginosa ATCC 27853 assessed as effect on planktonic growth at 87.5 ug/ml after 20 hrs relative to control; format: functional
# [24] = tested on: Staphylococcus epidermidis; experiment: Antibacterial activity against Staphylococcus epidermidis ATCC 35547 assessed as effect on planktonic growth at 0.17 ug/ml after 20 hrs relative to control; format: functional
# [25] = tested on: Staphylococcus epidermidis; experiment: Antibacterial activity against Staphylococcus epidermidis ATCC 35547 assessed as effect on planktonic growth at 0.34 ug/ml after 20 hrs relative to control; format: functional
# [26] = tested on: Staphylococcus epidermidis; experiment: Antibacterial activity against Staphylococcus epidermidis ATCC 35547 assessed as effect on planktonic growth at 0.68 ug/ml after 20 hrs relative to control; format: functional
# [27] = tested on: Staphylococcus epidermidis; experiment: Antibacterial activity against Staphylococcus epidermidis ATCC 35547 assessed as effect on planktonic growth at 1.37 ug/ml after 20 hrs relative to control; format: functional
# [28] = tested on: Staphylococcus epidermidis; experiment: Antibacterial activity against Staphylococcus epidermidis ATCC 35547 assessed as effect on planktonic growth at 2.73 ug/ml after 20 hrs relative to control; format: functional
# [29] = tested on: Staphylococcus epidermidis; experiment: Antibacterial activity against Staphylococcus epidermidis ATCC 35547 assessed as effect on planktonic growth at 5.5 ug/ml after 20 hrs relative to control; format: functional
# [30] = tested on: Staphylococcus epidermidis; experiment: Antibacterial activity against Staphylococcus epidermidis ATCC 35547 assessed as effect on planktonic growth at 10.9 ug/ml after 20 hrs relative to control; format: functional
# [31] = tested on: Staphylococcus epidermidis; experiment: Antibacterial activity against Staphylococcus epidermidis ATCC 35547 assessed as effect on planktonic growth at 21.9 ug/ml after 20 hrs relative to control; format: functional
# [32] = tested on: Staphylococcus epidermidis; experiment: Antibacterial activity against Staphylococcus epidermidis ATCC 35547 assessed as effect on planktonic growth at 43.8 ug/ml after 20 hrs relative to control; format: functional
# [33] = tested on: Staphylococcus epidermidis; experiment: Antibacterial activity against Staphylococcus epidermidis ATCC 35547 assessed as effect on planktonic growth at 87.5 ug/ml after 20 hrs relative to control; format: functional
# [34] = tested on: Staphylococcus epidermidis; experiment: Induction of biofilm formation in Staphylococcus epidermidis ATCC 35547 at 87.5 ug/ml after 20 hrs by crystal-violet staining method relative to control; format: organism-based
# [35] = tested on: Pseudomonas aeruginosa; experiment: Antibacterial activity against Pseudomonas aeruginosa ATCC 27853 assessed as inhibition of biofilm formation after 20 hrs by crystal-violet staining method; format: functional, organism-based; conditions: for IC50: ATCC 27853, 20 h
# [36] = tested on: Staphylococcus epidermidis; experiment: Antibacterial activity against Staphylococcus epidermidis ATCC 35547 assessed as inhibition of biofilm formation after 20 hrs by crystal-violet staining method; format: functional, organism-based
# [37] = tested on: Streptococcus mutans; experiment: Antibacterial activity against Streptococcus mutans ATCC 25175 assessed as effect on planktonic growth at 0.17 ug/ml after 20 hrs relative to control; format: functional
# [38] = tested on: Streptococcus mutans; experiment: Antibacterial activity against Streptococcus mutans ATCC 25175 assessed as effect on planktonic growth at 0.34 ug/ml after 20 hrs relative to control; format: functional
# [39] = tested on: Streptococcus mutans; experiment: Antibacterial activity against Streptococcus mutans ATCC 25175 assessed as effect on planktonic growth at 0.68 ug/ml after 20 hrs relative to control; format: functional
# [40] = tested on: Streptococcus mutans; experiment: Antibacterial activity against Streptococcus mutans ATCC 25175 assessed as effect on planktonic growth at 1.37 ug/ml after 20 hrs relative to control; format: functional
# [41] = tested on: Streptococcus mutans; experiment: Antibacterial activity against Streptococcus mutans ATCC 25175 assessed as effect on planktonic growth at 2.73 ug/ml after 20 hrs relative to control; format: functional
# [42] = tested on: Streptococcus mutans; experiment: Antibacterial activity against Streptococcus mutans ATCC 25175 assessed as effect on planktonic growth at 5.5 ug/ml after 20 hrs relative to control; format: functional
# [43] = tested on: Streptococcus mutans; experiment: Antibacterial activity against Streptococcus mutans ATCC 25175 assessed as effect on planktonic growth at 10.9 ug/ml after 20 hrs relative to control; format: functional
# [44] = tested on: Staphylococcus aureus; experiment: Antibacterial activity against Staphylococcus aureus ATCC 25923 assessed as inhibition of biofilm formation at 44 ug/ml after 20 hrs by crystal-violet staining method relative to control; format: functional; conditions: ATCC 25923, 20 h
compound,measurement,setting,value
COc1ccccc1C1=C(Br)C(=O)N(CC(C)C)C1(O)Cc1ccc(C(F)(F)F)cc1 (centres undefined),Activity,[1],-26.9%
same,Activity,[2],-29.9%
same,Activity,[3],-36.3%
same,Activity,[4],-4.8%
same,Activity,[5],-2.8%
same,Activity,[6],-5.6%
same,Activity,[7],2.5%
same,Activity,[8],-4.1%
same,Activity,[9],0.5%
same,Activity,[10],-5.8%
same,Activity,[11],-17%
same,Activity,[12],-17%
same,Activity,[13],-15.4%
same,Activity,[14],4.7%
same,Activity,[15],3.7%
same,Activity,[16],-6.5%
same,Activity,[17],-19.3%
same,Activity,[18],-18.4%
same,Activity,[19],-17.2%
same,Activity,[20],-16.2%
same,Activity,[21],-12.2%
same,Activity,[22],-7.8%
same,Activity,[23],-10.8%
same,Activity,[24],6.3%
same,Activity,[25],1.9%
same,Activity,[26],1.4%
same,Activity,[27],0.1%
same,Activity,[28],3.5%
same,Activity,[29],10.7%
same,Activity,[30],16.4%
same,Activity,[31],13.8%
same,Activity,[32],16.3%
same,Activity,[33],0.5%
same,Activity,[34],143.6%
same,inhibition,[35],Dose-dependent effect
same,IC50,[35],> 87.5 mg/L
same,inhibition,[36],Dose-dependent effect
same,Activity,[37],0.7%
same,Activity,[38],6.2%
same,Activity,[39],10.9%
same,Activity,[40],12.4%
same,Activity,[41],1.7%
same,Activity,[42],-18.7%
same,Activity,[43],-23.9%
COc1ccc(C)cc1C1=C(Br)C(=O)N(CC(C)C)/C1=C/c1ccccc1Cl,Activity,[1],13.8%
same,Activity,[2],20.1%
same,Activity,[3],20.1%
same,Activity,[4],-6.6%
same,Activity,[5],-6.6%
same,Activity,[6],-3.6%
same,Activity,[7],-4.6%
same,Activity,[8],-9.4%
same,Activity,[9],-10.4%
same,Activity,[10],-11.2%
same,Activity,[11],-13.2%
same,Activity,[12],4.6%
same,Activity,[13],20.1%
same,Activity,[14],1.2%
same,Activity,[15],0.6%
same,Activity,[16],-2.7%
same,Activity,[17],-10%
same,Activity,[18],-18.8%
same,Activity,[19],-17.8%
same,Activity,[20],-15%
same,Activity,[21],-13.2%
same,Activity,[22],-7.7%
same,Activity,[23],-4.3%
same,Activity,[24],-2.9%
same,Activity,[25],3.6%
same,Activity,[26],-6.1%
same,Activity,[27],-2.3%
same,Activity,[28],0.4%
same,Activity,[29],-1%
same,Activity,[30],6%
same,Activity,[31],5.9%
same,Activity,[32],26.9%
same,Activity,[33],23.5%
same,inhibition at 44 µg/mL,[44],34%
same,inhibition,[35],Dose-dependent effect
same,IC50,[35],1.4 mg/L
same,inhibition,[36],Dose-dependent effect
same,IC50,"[36]; ATCC 35547, 20 h",> 87.5 mg/L
same,Activity,[37],11.9%
same,Activity,[38],18.1%
same,Activity,[39],9%
same,Activity,[40],20.6%
same,Activity,[41],24.3%
same,Activity,[42],25.4%
same,Activity,[43],18.6%
